Source: US10238638B2, “Benzothiazole and benzothiophene compounds” (Bristol-Myers Squibb Company, priority 2015, dated 2019)
pIC50: −log10 of the molar value.

Target: PAR4 (Homo sapiens (Human), UniProt Q96RI0)
Assay: FLIPR assay in PAR4-expressing HEK293 cells (calcium mobilization)
Format: cell-based
Details: H-Ala-Phe(4-F)-Pro-Gly-Trp-Leu-Val-Lys-Asn-Gly-NH2-induced calcium mobilization, PAR4 antagonist activity
From the text: The FLIPR assay is an exemplary in vitro assay for measuring the activity of the PAR4 antagonists of the present invention. In this assay, intracellular calcium mobilization is induced in PAR4 expressing cells by a PAR4 agonist and calcium mobilization is monitored.
HEK293 cells stably expressing PAR4 were generated by a standard method of transfection of human PAR4 (F2R23) cDNA expression vector and selected based on PAR4 protein expression or mRNA expression. […] Therefore, the same cells were also used to determine selectivity against PAR1 and agonist activity for both receptors.
FLIPR-based calcium mobilization assay in HEK293 cells was used to measure PAR4 antagonism, agonism, and selectivity against PAR1. […] Counter screens for agonist activity and PAR1 antagonist activity were also performed. Briefly, PAR1/PAR4-expressing HEK293 cells were grown in DMEM (Life Technology, Grand Island, N.Y.) containing 10% heat-inactivated FBS, 1% Penicillin-Streptomycin, 10 μg/mL blasticidin, and 100 μg/mL Zeocin at 37° C. with 5% CO2. Cells were plated overnight prior to the experiment in a black 384-well Purecoat Amine clear bottom plate (Becton Dickinson Biosciences, San Jose, Calif.) at 10,000 cells/well in 30 μL growth medium and incubated in a humidified chamber at 37° C. with 5% CO2 overnight. Prior to compound addition, the cell medium was replaced with 40 μL of 1× calcium and magnesium-containing Hank's Balanced Saline Solution (HBSS) (with 20 mM HEPES) and 1:1000 diluted fluorescent calcium indicator (Codex Biosolutions, Gaithersburg, Md.). After a 30 minute incubation period at 37° C. and a further 30 minute incubation and equilibration period at room temperature, 20 μL test compound (diluted in 1×HBSS buffer) was added at various concentrations at 0.17% dimethyl sulfoxide (DMSO) final concentration. Changes in fluorescence intensity were measured using a Functional Drug Screening System (FDSS, Hamamatsu, Japan) to determine agonist activities. The cells were then incubated for 30 minutes at room temperature followed by addition of 20 μL of agonist peptide for antagonist activity measurement. […] Compound potency was derived from 11-point concentration-response curves.

PAR4, sequence (Q96RI0 18-385): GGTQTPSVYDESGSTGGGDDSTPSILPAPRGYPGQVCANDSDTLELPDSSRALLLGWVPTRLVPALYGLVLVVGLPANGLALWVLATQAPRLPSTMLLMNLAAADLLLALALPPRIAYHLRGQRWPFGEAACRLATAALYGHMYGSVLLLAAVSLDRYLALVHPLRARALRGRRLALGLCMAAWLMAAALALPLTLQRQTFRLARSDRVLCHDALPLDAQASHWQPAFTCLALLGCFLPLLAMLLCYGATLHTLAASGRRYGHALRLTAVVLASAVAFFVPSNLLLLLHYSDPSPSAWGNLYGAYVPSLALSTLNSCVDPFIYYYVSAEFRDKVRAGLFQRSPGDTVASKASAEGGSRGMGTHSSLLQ

Row | SMILES | pIC50
1 | COc1cc(OCc2csc(-c3ccc(C(=O)N4CCC[C@H](O)C4)cc3)n2)c2sc(-c3cn4nc(C5CC5)sc4n3)nc2c1 [Example 26, (S)-(4-(4-(((2-(2-Cyclopropylimidazo[2,1-b][1,3,4]thiadiazol-6-yl)-5-methoxybenzo[d]thiazol-7-yl)oxy)methyl)thiazol-2-yl)phenyl)(3-hydroxypiperidin-1-yl)methanone] | 5.04
2 | CCc1nn2cc(-c3nc4cc(OC)cc(OCc5csc(-c6ccc(C(=O)N(C)C)cc6)n5)c4s3)nc2s1 [Example 35, 4-(4-(((2-(2-Ethylimidazo[2,1-b][1,3,4]thiadiazol-6-yl)-5-methoxybenzo[d]thiazol-7-yl)oxy)methyl)thiazol-2-yl)-N,N-dimethylbenzamide] | 5.92
3 | COc1cc(OCc2csc(-c3ccc(C(=O)N(C)C4CCOCC4)cc3)n2)c2sc(-c3cn4nc(C(C)(F)F)sc4n3)nc2c1 [Example 22, 4-(4-(((2-(2-(1,1-Difluoroethyl)imidazo[2,1-b][1,3,4]thiadiazol-6-yl)-5-methoxybenzo[d]thiazol-7-yl)oxy)methyl)thiazol-2-yl)-N-methyl-N-(tetrahydro-2H-pyran-4-yl)benzamide] | 6.12
4 | COc1cc(OCc2csc(-c3ccc(C(=O)N(C)[C@H]4CCOC4)cc3)n2)c2sc(-c3cn4nc(C)sc4n3)nc2c1 [Example 3, (S)-4-(4-(((5-methoxy-2-(2-methylimidazo[2,1-b][1,3,4]thiadiazol-6-yl)benzo[d]thiazol-7-yl)oxy)methyl)thiazol-2-yl)-N-methyl-N-(tetrahydrofuran-3-yl)benzamide] | 5.44
5 | COc1cc(OCc2csc(-c3ccc(C(=O)N4CC[C@@H](CO)C4)cc3)n2)c2sc(-c3cn4nc(C(C)(F)F)sc4n3)nc2c1 [Example 20, (R)-(4-(4-(((2-(2-(1,1-Difluoroethyl)imidazo[2,1-b][1,3,4]thiadiazol-6-yl)-5-methoxybenzo[d]thiazol-7-yl)oxy)methyl)thiazol-2-yl)phenyl)(3-(hydroxymethyl)pyrrolidin-1-yl)methanone] | 5.92
6 | COc1cc(OCc2nc(-c3ccc(C(=O)N4CCC(CCO)CC4)cc3)sc2C)c2sc(-c3cn4nc(C)sc4n3)nc2c1 [Example 42, (4-(2-Hydroxyethyl)piperidin-1-yl)(4-(4-(((5-methoxy-2-(2-methylimidazo[2,1-b][1,3,4]thiadiazol-6-yl)benzo[d]thiazol-7-yl)oxy)methyl)-5-methylthiazol-2-yl)phenyl)methanone] | 5.96
7 | COc1cc(OCc2nc(-c3ccc(C(=O)N(C)[C@H]4CCOC4)cc3)sc2C)c2sc(-c3cn4nc(C)sc4n3)nc2c1 [Example 39, (S)-4-(4-(((5-Methoxy-2-(2-methylimidazo[2,1-b][1,3,4]thiadiazol-6-yl)benzo[d]thiazol-7-yl)oxy)methyl)-5-methylthiazol-2-yl)-N-methyl-N-(tetrahydrofuran-3-yl)benzamide] | 5.74
8 | COc1cc(OCc2csc(-c3ccc(C(=O)O)cc3)n2)c2sc(-c3cn4nc(C(C)(F)F)sc4n3)nc2c1 [Example 14, 4-(4-(((2-(2-(1,1-Difluoroethyl)imidazo[2,1-b][1,3,4]thiadiazol-6-yl)-5-methoxybenzo[d]thiazol-7-yl)oxy)methyl)thiazol-2-yl)benzoic acid] | 4.06
9 | COc1cc(OCc2csc(-c3ccc(C(=O)N4CCOC[C@H]4CO)cc3)n2)c2sc(-c3cn4nc(C(C)(F)F)sc4n3)nc2c1 [Example 21, (R)-(4-(4-(((2-(2-(1,1-Difluoroethyl)imidazo[2,1-b][1,3,4]thiadiazol-6-yl)-5-methoxybenzo[d]thiazol-7-yl)oxy)methyl)thiazol-2-yl)phenyl)(3-(hydroxymethyl)morpholino)methanone] | 6.04
10 | COc1cc(OCc2csc(-c3ccc(C(=O)N4CCC[C@H](O)C4)cc3)n2)c2sc(-c3cn4nc(C)sc4n3)nc2c1 [Example 4] | 5.38
11 | CCc1nn2cc(-c3nc4cc(OC)cc(OCc5csc(-c6ccc(C(=O)N(C)[C@H]7CCOC7)cc6)n5)c4s3)nc2s1 [Example 34, (S)-4-(4-(((2-(2-Ethylimidazo[2,1-b][1,3,4]thiadiazol-6-yl)-5-methoxybenzo[d]thiazol-7-yl)oxy)methyl)thiazol-2-yl)-N-methyl-N-(tetrahydrofuran-3-yl)benzamide] | 5.89
12 | COc1cc(OCc2csc(-c3ccc(C(=O)OC(C)(C)C)cc3)n2)c2sc(-c3cn4nc(C)sc4n3)nc2c1 [Example 1, tert-Butyl 4-(4-(((5-methoxy-2-(2-methylimidazo[2,1-b][1,3,4]thiadiazol-6-yl)benzo[d]thiazol-7-yl)oxy)methyl)thiazol-2-yl)benzoate] | 5.62
13 | COc1cc(OCc2csc(-c3ccc(C(=O)N(C)[C@H]4CCOC4)cc3)n2)c2sc(-c3cn4nc(C)ccc4n3)nc2c1 [Example 47, (S)-4-(4-(((5-Methoxy-2-(6-methylimidazo[1,2-b]pyridazin-2-yl)benzo[d]thiazol-7-yl)oxy)methyl)thiazol-2-yl)-N-methyl-N-(tetrahydrofuran-3-yl)benzamide] | 5.19
14 | CCc1nn2cc(-c3nc4cc(OC)cc(OCc5csc(-c6ccc(C(=O)N7CCC(CCO)CC7)cc6)n5)c4s3)nc2s1 [Example 36, (4-(4-(((2-(2-Ethylimidazo[2,1-b][1,3,4]thiadiazol-6-yl)-5-methoxybenzo[d]thiazol-7-yl)oxy)methyl)thiazol-2-yl)phenyl)(4-(2-hydroxyethyl)piperidin-1-yl)methanone] | 5.89
15 | COc1cc(OCc2csc(-c3ccc(C(=O)N(CCO)C(C)(C)C)cc3)n2)c2sc(-c3cn4nc(C)sc4n3)nc2c1 [Example 7] | 4.52
16 | COc1cc(OCc2csc(-c3ccc(C(=O)N(C)C)cc3)n2)c2sc(-c3cn4nc(C5CC5)sc4n3)nc2c1 [Example 28, 4-(4-(((2-(2-Cyclopropylimidazo[2,1-b][1,3,4]thiadiazol-6-yl)-5-methoxybenzo[d]thiazol-7-yl)oxy)methyl)thiazol-2-yl)-N,N-dimethylbenzamide] | 5.43
17 | COc1cc(OCc2csc(-c3ccc(C(=O)N(C)[C@H]4CCOC4)cc3)n2)c2sc(-c3cn4nc(C5CC5)sc4n3)nc2c1 [Example 25, (S)-4-(4-(((2-(2-Cyclopropylimidazo[2,1-b][1,3,4]thiadiazol-6-yl)-5-methoxybenzo[d]thiazol-7-yl)oxy)methyl)thiazol-2-yl)-N-methyl-N-(tetrahydrofuran-3-yl)benzamide] | 5.59
18 | COc1cc(OCc2csc(-c3ccc(C(=O)N(C)CC#N)cc3)n2)c2sc(-c3cn4nc(C5CC5)sc4n3)nc2c1 [Example 27, N-(Cyanomethyl)-4-(4-(((2-(2-cyclopropylimidazo[2,1-b][1,3,4]thiadiazol-6-yl)-5-methoxybenzo[d]thiazol-7-yl)oxy)methyl)thiazol-2-yl)-N-methylbenzamide] | 5.92
19 | CCc1nn2cc(-c3nc4cc(OC)cc(OCc5csc(-c6ccc(C(=O)OC(C)(C)C)cc6)n5)c4s3)nc2s1 [Example 31, tert-Butyl 4-(4-(((2-(2-ethylimidazo[2,1-b][1,3,4]thiadiazol-6-yl)-5-methoxybenzo[d]thiazol-7-yl)oxy)methyl)thiazol-2-yl)benzoate] | 5.70
20 | COc1cc(OCc2csc(N3CCOCC3)n2)c2sc(-c3cn4nc(C)ccc4n3)nc2c1 [Example 46, 4-(4-(((5-Methoxy-2-(6-methylimidazo[1,2-b]pyridazin-2-yl)benzo[d]thiazol-7-yl)oxy)methyl)thiazol-2-yl)morpholine] | 5.60
21 | COc1cc(OCc2csc(-c3ccc(C(=O)N4CCC[C@H](O)C4)cc3)n2)c2sc(-c3cn4nc(C)ccc4n3)nc2c1 [Example 48, (S)-(3-Hydroxypiperidin-1-yl)(4-(4-(((5-methoxy-2-(6-methylimidazo[1,2-b]pyridazin-2-yl)benzo[d]thiazol-7-yl)oxy)methyl)thiazol-2-yl)phenyl)methanone] | 5.00
22 | COc1cc(OCc2csc(-c3ccccc3)n2)c2sc(-c3cn4nc(C)ccc4n3)nc2c1 [Example 45, 5-Methoxy-2-(6-methylimidazo[1,2-b]pyridazin-2-yl)-7-((2-phenylthiazol-4-yl)methoxy)benzo[d]thiazole] | 5.74
23 | COc1cc(OCc2csc(-c3ccc(C(=O)N(C)[C@H]4CCOC4)cc3)n2)c2sc(-c3cn4nc(C(C)(F)F)sc4n3)nc2c1 [Example 15, (S)-4-(4-(((2-(2-(1,1-Difluoroethyl)imidazo[2,1-b][1,3,4]thiadiazol-6-yl)-5-methoxybenzo[d]thiazol-7-yl)oxy)methyl)thiazol-2-yl)-N-methyl-N-(tetrahydrofuran-3-yl)benzamide] | 5.43
